Assay results: US20170333421A1, “Population Pharmacokinetics of Liposomal Irinotecan” (IPSEN BIOPHARM LTD., priority 2016, published 2017)
Counter-ions that a name gives are not always drawn. Like-named read-outs stand apart in the source and are kept apart here.

Experiments:
[1] = NAPOLI-1 observed 5-FU concentration; details: human, in vivo, intravenous; read-out: 5-FU estimated half-life after the end of infusion
Colorectal Cancer = details: cited from earlier work
clinical = details: human, in vivo, 300 mg/m2
pancreatic cell lines = test: CellTiter-Glo cell viability, pancreatic cell panel; format: cell-based
Procedure: (§1) In vitro efficacy study was done using CellTiter-Glo® Luminescent Cell Viability Assay (Promega) with Corning Cat #3707 384well White Clear bottom plates. Cells were plated (1000 cells/well) in 384 well format and allowed to incubate @ 37 C for 24 hours. Monotherapy drugs were added at the 24 hr time point and then allowed to incubate @ 37 C for 24 hours. At the 48 hr time point the drugs in media were removed, washed with PBS, and fresh media was added. Cells were then allowed to incubate @ 37 C for 72 hours. At the 120 hr time point media was removed and CellTiter-Glo (CTG) reagent was added (1:1 ratio with PBS). Plate was read by luminometer (Envision Multilabel reader). More details of this assay can be found in Accelrys Notebook ELN as EXP-15-AC2111.
(§2) All cell lines had been adapted to and were maintained in RPMI with 10% fetal bovine serum and supplemented with penicillin/streptomycin (Invitrogen).
(§3) Data was analyzed using an in-house algorithm developed using Matlab (Mathworks, Natick MA). In summary, average CTG mean luminescent values were computed for 4 replicate wells. Outlier detection was performed by computing the coefficient of variation (CV>20%) and outliers were removed from the average. CTG values were normalized based on a control non-treated well. Drug concentration in microMolar (uM) was log transformed prior to fitting to a 4 parameter logistic curve.
(§4) Data quality control was performed to ensure that the concentration range is optimal according to these rules: (1) if the lowest concentration kills more than 70% of the cells the concentration range is deemed too potent (2) if the highest concentration kills less than 30% of the cells, the concentration range is deemed low or the cell line is too resistant. Additionally, goodness of the fit was evaluated using R^2 and R^2<0.9 is flagged as a bad fit. Statistical analysis was performed using JMP (SAS Institute Inc., NC).
(§5) Pancreatic cell lines were cultured to sub confluent state in 384 well plates prior to incubation with varying doses of SN-38 for 24 hours. Additions 72 hours of culture were performed prior to CTG assessment. Every well was run in 4 replicates, and the entire experiment was run in four different plates. The compared results from the four separate experiments show the reproducibility of the cytotoxic effects of SN-38.

Aspc1 = test: CellTiter-Glo cell viability; format: cell-based; details: for IC50: Homo sapiens, Aspc1, 24 h exposure + 72 h recovery
Procedure: as §1, §2, §3, §4, §5

BxPC3 = test: CellTiter-Glo cell viability; format: cell-based; details: for IC50: Homo sapiens, BXPC-3, BxPC3, 24 h exposure + 72 h recovery
Procedure: as §1, §2, §3, §4, §5

CFPAC1 = test: CellTiter-Glo cell viability; format: cell-based; details: for IC50: Homo sapiens, CFPAC-1
Procedure: as §1, §2, §3, §4, §5

Capan-2 = test: CellTiter-Glo cell viability; format: cell-based
Procedure: as §1, §2, §3, §4, §5

Colo357 = test: CellTiter-Glo cell viability; format: cell-based; details: for IC50: Homo sapiens, Colo357, 24 h exposure + 72 h recovery
Procedure: as §1, §2, §3, §4, §5

HPAFII = test: CellTiter-Glo cell viability; format: cell-based; details: for IC50: Homo sapiens, HPAF-II, 24 h exposure + 72 h recovery
Procedure: as §1, §2, §3, §4, §5

Hs766t = test: CellTiter-Glo cell viability; format: cell-based; details: for IC50: 24 h exposure + 72 h recovery
Procedure: as §1, §2, §3, §4, §5

KP4 = test: CellTiter-Glo cell viability; format: cell-based; details: for IC50: Homo sapiens, KP-4, KP4, 24 h exposure + 72 h recovery
Procedure: as §1, §2, §3, §4, §5

L3.3 = test: CellTiter-Glo cell viability; format: cell-based; details: for IC50: L3.3, 24 h exposure + 72 h recovery
Procedure: as §1, §2, §3, §4, §5

L3.6pL = test: CellTiter-Glo cell viability; format: cell-based; details: for IC50: Homo sapiens, 24 h exposure + 72 h recovery
Procedure: as §1, §2, §3, §4, §5

Miapaca2 = test: CellTiter-Glo cell viability; format: cell-based; details: for IC50: Homo sapiens, MIA PaCa-2
Procedure: as §1, §2, §3, §4, §5

PL45 = test: CellTiter-Glo cell viability; format: cell-based; details: for IC50: PL45, 24 h exposure + 72 h recovery
Procedure: as §1, §2, §3, §4, §5

Panc1 = test: CellTiter-Glo cell viability; format: cell-based
Procedure: as §1, §2, §3, §4, §5

Panc6.03 = test: CellTiter-Glo cell viability; format: cell-based; details: for IC50: Panc6.03, 24 h exposure + 72 h recovery
Procedure: as §1, §2, §3, §4, §5

SU8686 = test: CellTiter-Glo cell viability; format: cell-based; details: for IC50: Homo sapiens, SU.86.86, SU8686, 24 h exposure + 72 h recovery
Procedure: as §1, §2, §3, §4, §5

SW1990 = test: CellTiter-Glo cell viability; format: cell-based; details: for IC50: Homo sapiens, SW1990, 24 h exposure + 72 h recovery
Procedure: as §1, §2, §3, §4, §5

[2] = Kohne 2013, continuous infusion
[3] = n 3, read-out: IC50 Log(μM) mean (converted)
[4] = n 2, read-out: IC50 Log(μM) mean (converted)
[5] = n 4, read-out: IC50 Log(μM) mean (converted)

Q: For `O=c1[nH]cc(F)c(=O)[nH]1` [5-FU, 5-fluorouracil], which half-life [1] is on record?
A: 8 to 14 min

Q: What about the “Median OS (m)” value (Colorectal Cancer; Kohne 2013, bolus 463-531 mg/m^2/week) of the same compound?
A: nrd

Q: And the “OS 3 y” value (Colorectal Cancer; Kohne 2013, bolus)?
A: 85%

Q: And the “OS 5 y” value (Colorectal Cancer; Kohne 2013, bolus)?
A: 79%

Q: What about the “Median OS (m)” value (Colorectal Cancer; Kohne 2013, continuous infusion 800-3500 mg/m^2/week, N 797) of the same compound?
A: nrd

Q: And the “OS 3 y” value (Colorectal Cancer; [2])?
A: 85%

Q: And the “OS 5 y” value (Colorectal Cancer; [2])?
A: 79%

Q: And the “Overall Survival HR, bolus vs continuous infusion (ref)” value (Colorectal Cancer; Kohne 2013 PETACC-2, BL 370-425 mg/m^2/d for 5 d q4w, N 804)?
A: 0.96

Q: What about the “OS HR across different 5-FU dose intensities and dose administrations” value (Colorectal Cancer; meta-analysis, did not affect OS) of the same compound?
A: 0.96-1.11

Q: Which AUC(0-inf) (clinical) does the source give for `CCc1c2c(nc3ccc(OC(=O)N4CCC(N5CCCCC5)CC4)cc13)-c1cc3c(c(=O)n1C2)COC(=O)[C@]3(O)CC` [irinotecan HCl, (S)-4,11-diethyl-3,4,12,14-tetrahydro-4-hydroxy-3,14-dioxo1H-pyrano[3′,4′:6,7] indolizino[1,2-b]quinolin-9-yl-[1,4′bipiperidine]-1′-carboxylate] here?
A: 24700 ng·h/mL

Q: What about the Cmax (clinical) of the same compound?
A: 4100 ng/mL

Q: Which results are given for `CCc1c2c(nc3ccc(O)cc13)-c1cc3c(c(=O)n1C2)COC(=O)[C@]3(O)CC` [SN-38]?
A: Tumor cell kill rates averaged across all cell lines (pancreatic cell lines): 90%; decrease in cell viability for most cell lines (pancreatic cell lines; 24 h SN-38, additional 72 h culture): around 90%; IC50 (pancreatic cell lines; 24 hours exposure, recovery period of 72 h, read-out: IC50 range across all pancreatic cell lines): 0.001 to 100 nM; IC50 (pancreatic cell lines; basis of the uSN38 threshold, read-out: median IC50 in in-vitro pancreatic cell lines): 0.03 ng/mL; Tumor Cell Kill (%) mean (Aspc1; Aspc1): 91.61%; IC50 (Aspc1; [3]): 0.00398 µM; IC50 (Aspc1; read-out: IC50(nM) mean): 0.00398 µM; Tumor Cell Kill (%) mean (BxPC3; BxPC3): 77.37%; IC50 (BxPC3; [4]): 0.017 nM; IC50 (BxPC3; read-out: IC50(nM) mean): 0.017 nM; Tumor Cell Kill (%) mean (CFPAC1; CFPAC1): 84.74%; IC50 (CFPAC1; CFPAC1, 24 h exposure + 72 h recovery, n 2, read-out: IC50 Log(μM) mean (converted)): 0.00316 nM; IC50 (CFPAC1; CFPAC1, 24 h exposure + 72 h recovery, read-out: IC50(nM) mean): 0.0032 nM; IC50 (CFPAC1; CFPAC1, read-out: IC50 concentration): 0.0032 nM; Tumor Cell Kill (%) mean (Capan-2; Capan-2): 94.61%; IC50 (Capan-2; Capan-2, 24 h exposure + 72 h recovery, read-out: IC50(nM) mean): 20.4 nM; IC50 (Capan-2; Homo sapiens, Capan-2, Capan-2, 24 h exposure + 72 h recovery, n 3, read-out: IC50 Log(μM) mean (converted)): 20.4 nM; IC50 (Capan-2; Homo sapiens, Capan-2, Capan-2, 24 h exposure + 72 h recovery, read-out: IC50(nM) mean): 20.4 nM; Tumor Cell Kill (%) mean (Colo357; Colo357): 94.47%; IC50 (Colo357; [4]): 0.0617 nM; IC50 (Colo357; read-out: IC50(nM) mean): 0.0617 nM; Tumor Cell Kill (%) mean (HPAFII): 93.24%; IC50 (HPAFII; [3]): 0.00204 µM; IC50 (HPAFII; read-out: IC50(nM) mean): 0.00204 µM; Tumor Cell Kill (%) mean (Hs766t): 86.41%; IC50 (Hs766t; read-out: IC50(nM) mean): 63.1 nM; IC50 (Hs766t; Hs766T, n 2, read-out: IC50 Log(μM) mean (converted)): 63.1 nM; IC50 (Hs766t; Hs766T, read-out: IC50(nM) mean): 63.1 nM; IC50 (KP4; [4]): 0.00794 nM; IC50 (KP4; read-out: IC50(nM) mean): 0.0079 nM; Tumor Cell Kill (%) mean (KP4; KP4): 86.62%; Tumor Cell Kill (%) mean (L3.3; L3.3): 93.01%; IC50 (L3.3; [4]): 0.00204 nM; IC50 (L3.3; read-out: IC50(nM) mean): 0.002 nM; Tumor Cell Kill (%) mean (L3.6pL): 95.18%; IC50 (L3.6pL; [4]): 0.00282 nM; IC50 (L3.6pL; read-out: IC50(nM) mean): 0.0028 nM; IC50 (Miapaca2; MiaPaCa2, read-out: IC50 concentration): 0.0042 nM; IC50 (Miapaca2; Miapaca2, 24 h exposure + 72 h recovery, n 3, read-out: IC50 Log(μM) mean (converted)): 0.00417 nM; IC50 (Miapaca2; Miapaca2, 24 h exposure + 72 h recovery, read-out: IC50(nM) mean): 0.0042 nM; Tumor Cell Kill (%) mean (Miapaca2; Miapaca2): 91.23%; Tumor Cell Kill (%) mean (PL45; PL45): 92.16%; IC50 (PL45; [4]): 0.00355 nM; IC50 (PL45; read-out: IC50(nM) mean): 0.0035 nM; IC50 (Panc1; Homo sapiens, PANC-1, Panc1, 24 h exposure + 72 h recovery, n 4, read-out: IC50 Log(μM) mean (converted)): 0.0138 µM; IC50 (Panc1; Homo sapiens, PANC-1, Panc1, 24 h exposure + 72 h recovery, read-out: IC50(nM) mean): 0.0138 µM; Tumor Cell Kill (%) mean (Panc1; Panc1): 89.54%; IC50 (Panc1; Panc1, 24 h exposure + 72 h recovery, read-out: IC50(nM) mean): 0.0138 µM; Tumor Cell Kill (%) mean (Panc6.03; Panc6.03): 87.68%; IC50 (Panc6.03; [5]): 0.00115 µM; IC50 (Panc6.03; read-out: IC50(nM) mean): 0.00115 µM; IC50 (SU8686; [4]): 0.000692 µM; IC50 (SU8686; read-out: IC50(nM) mean): 0.000692 µM; Tumor Cell Kill (%) mean (SU8686; SU8686): 95.82%; IC50 (SW1990; [5]): 0.0871 nM; IC50 (SW1990; read-out: IC50(nM) mean): 0.0871 nM; Tumor Cell Kill (%) mean (SW1990; SW1990): 91.92%
